Reference: patent US20260258035A1, “FIVE-MEMBERED AND SIX-MEMBERED NITROGEN-CONTAINING COMPOUND, AND INTERMEDIATE, PREPARATION METHOD AND USE THEREOF” (HANGZHOU SYNRX THERAPEUTICS BIOMEDICAL TECHNOLOGY CO., LTD., priority 2022, published 2026)
Like-named read-outs stand apart in the source and are kept apart here.

Key:
[1] = test system: HCC1806; experiment: Cell viability assay (CellTiter-Glo); type: cell-based, Human; conditions: HCC1806, 7 days, CellTiter-Glo, read-out: IC50 (nM) in cell viability assay
[2] = molecular target: PARG (Homo sapiens, UniProt Q86W56); experiment: Biochemical assay (PARG, TFMU-ADPr substrate)
PARG, sequence (Q86W56 whole entry): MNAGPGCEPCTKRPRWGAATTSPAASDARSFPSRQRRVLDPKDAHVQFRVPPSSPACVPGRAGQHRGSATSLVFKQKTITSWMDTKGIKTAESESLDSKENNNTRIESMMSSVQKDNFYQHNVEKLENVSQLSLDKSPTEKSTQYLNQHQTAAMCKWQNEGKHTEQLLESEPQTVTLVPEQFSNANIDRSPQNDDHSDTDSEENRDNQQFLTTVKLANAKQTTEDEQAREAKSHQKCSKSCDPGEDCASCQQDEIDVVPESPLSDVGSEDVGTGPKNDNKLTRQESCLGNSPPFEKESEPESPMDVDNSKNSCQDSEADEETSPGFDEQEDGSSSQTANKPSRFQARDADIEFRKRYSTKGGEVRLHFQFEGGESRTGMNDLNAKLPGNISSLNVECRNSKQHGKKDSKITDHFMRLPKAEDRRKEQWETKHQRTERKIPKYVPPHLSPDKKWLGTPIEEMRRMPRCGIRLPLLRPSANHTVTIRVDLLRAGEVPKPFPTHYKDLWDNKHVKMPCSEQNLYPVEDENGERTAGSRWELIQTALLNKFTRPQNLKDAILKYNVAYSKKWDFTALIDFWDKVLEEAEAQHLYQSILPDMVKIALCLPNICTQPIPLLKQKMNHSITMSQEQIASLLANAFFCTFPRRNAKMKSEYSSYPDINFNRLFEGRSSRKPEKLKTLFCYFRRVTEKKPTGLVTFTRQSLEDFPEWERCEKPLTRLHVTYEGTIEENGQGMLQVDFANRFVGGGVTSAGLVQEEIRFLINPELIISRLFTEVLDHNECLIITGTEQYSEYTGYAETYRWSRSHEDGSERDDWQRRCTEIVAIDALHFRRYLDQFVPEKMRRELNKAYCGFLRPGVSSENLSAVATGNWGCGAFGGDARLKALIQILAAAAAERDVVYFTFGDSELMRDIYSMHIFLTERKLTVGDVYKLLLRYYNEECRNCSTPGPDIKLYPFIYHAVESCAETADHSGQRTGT

[3] = 4 nM PARG, 66.2 uM TFMU-ADPr, 3 min at room temperature

Compound	IC50 ([1]; Homo sapiens, HCC1806, 168 h)	IC50 ([2]; PARG, TFMU-ADPr substrate)	IC50 [1]	IC50 [2, 3]
COCC1CN(c2cc(S(=O)(=O)NC3(CF)COC3)cn3c(-c4nnc(C(F)F)s4)nc(Cl)c23)CCN1 (stereo not shown) [Example 136, 1-chloro-3-(5-(difluoromethyl)-1,3,4-thiadiazol-2-yl)-N-(3-(fluoromethyl)oxetan-3-yl)-8-(3-(methoxymethyl)piperazin-1-yl)imidazo[1,5-a]pyridine-6-sulfonamide]	199 nM	7.94 nM		
CC(C)OCC1CN(c2cc(S(=O)(=O)NC3(C)COC3)cn3c(-c4nnc(C(F)F)s4)nc(Cl)c23)CCN1 (stereo not shown) [Example 137, 1-chloro-3-(5-(difluoromethyl)-1,3,4-thiadiazol-2-yl)-8-(3-(isopropoxymethyl)piperazin-1-yl)-N-(3-methyloxetan-3-yl)imidazo[1,5-a]pyridine-6-sulfonamide]	332 nM	15.8 nM		
C[C@@H]1CN(c2cc(S(=O)(=O)NC3(C#N)CC3)cn3c(-c4nnc(C(F)F)s4)ncc23)CCN1C(CO)C(F)(F)F (stereo partly drawn) [Example 144, N-(1-cyanocyclopropyl)-3-(5-(difluoromethyl)-1,3,4-thiadiazol-2-yl)-8-((3R)-3-methyl-4-(1,1,1-trifluoro-3-hydroxypropan-2-yl)piperazin-1-yl)imidazo[1,5-a]pyridine-6-sulfonamide]	5000 to 30000 nM	263 nM	7020 nM	100 to 500 nM
[2H]c1nc(-c2nnc(C(F)(F)F)s2)n2cc(S(=O)(=O)NC3(C#N)CC3)cc(N3CCN(C(=O)C4CC4)CC3)c12 [Example 157, N-(1-cyanocyclopropyl)-8-(4-(cyclopropanecarbonyl)piperazin-1-yl)-3-(5-(trifluoromethyl)-1,3,4-thiadiazol-2-yl)imidazo[1,5-a]pyridine-6-sulfonamide-1-d]	1020 nM	33.1 nM		
[2H]c1nc(-c2nnc(C(F)F)s2)n2cc(S(=O)(=O)NC3(C)COC3)cc(N3CCNC(COC)C3)c12 (stereo not shown) [Example 158, 3-(5-(difluoromethyl)-1,3,4-thiadiazol-2-yl)-8-(3-(methoxymethyl)piperazin-1-yl)-N-(3-methyloxetan-3-yl)imidazo[1,5-a]pyridine-6-sulfonamide-1-d]	1090 nM	15.8 nM		
[2H]c1nc(-c2nnc(C(F)F)s2)n2cc(S(=O)(=O)NC3(C)COC3)cc(N3C[C@H](C)N[C@@H](C)C3)c12 [Example 160, 3-(5-(difluoromethyl)-1,3,4-thiadiazol-2-yl)-8-((3S,5S)-3,5-dimethylpiperazin-1-yl)-N-(3-methyloxetan-3-yl)imidazo[1,5-a]pyridine-6-sulfonamide-1-d]	23.5 nM	0.23 nM		
CC(C)C(=O)N1CCN(c2nc(S(=O)(=O)NC3(C)CC3)cn3c(-c4nnc(C(F)F)s4)ncc23)CC1 [Example 162, 3-(5-(difluoromethyl)-1,3,4-thiadiazol-2-yl)-8-(4-isobutyrylpiperazin-1-yl)-N-(1-methylcyclopropyl)imidazo[1,5-a]pyrazine-6-sulfonamide]	5000 to 30000 nM	525 nM	6070 nM	500 to 1000 nM
CC(C)C(=O)N1CCN(c2cc(S(=O)(=O)NC3(C)CC3)cn3c(-c4nnc(C(F)(F)F)s4)nc(C#N)c23)CC1 [Example 164, 1-cyano-8-(4-isobutyrylpiperazin-1-yl)-N-(1-methylcyclopropyl)-3-(5-(trifluoromethyl)-1,3,4-thiadiazol-2-yl)imidazo[1,5-a]pyridine-6-sulfonamide]	100 nM	3.31 nM		
Cc1nc(-c2nnc(C(F)F)s2)n2cc(S(=O)(=O)NC3(C#N)CC3)cc(N3CCN(C(=O)C(C)C)CC3)c12 [Example 170, N-(1-cyanocyclopropyl)-3-(5-(difluoromethyl)-1,3,4-thiadiazol-2-yl)-8-(4-isobutyrylpiperazin-1-yl)-1-methylimidazo[1,5-a]pyridine-6-sulfonamide]	122 nM	1.66 nM		
Cc1nc(-c2nnc(C(F)(F)F)s2)n2cc(S(=O)(=O)NC3(C)CC3)cc(N3CCN(C(=O)[C@H]4CCN4C)CC3)c12 [Example 171, (R)-1-methyl-8-(4-(1-methylazetidine-2-carbonyl)piperazin-1-yl)-N-(1-methylcyclopropyl)-3-(5-(trifluoromethyl)-1,3,4-thiadiazol-2-yl)imidazo[1,5-a]pyridine-6-sulfonamide]	32 nM	0.71 nM		
Cc1nc(-c2nnc(C(F)(F)F)s2)n2cc(S(=O)(=O)NC3(C#N)CC3)cc(N3CCN(C(=O)C4CCO4)CC3)c12 (stereo not shown) [Example 172, N-(1-cyanocyclopropyl)-1-methyl-8-(4-(oxetane-2-carbonyl)piperazin-1-yl)-3-(5-(trifluoromethyl)-1,3,4-thiadiazol-2-yl)imidazo[1,5-a]pyridine-6-sulfonamide]	308 nM	10 nM		
CC(=O)N1CCN(c2cc(S(=O)(=O)NC3(C#N)CC3)cn3c(-c4nnc(C(F)(F)F)s4)ncc23)CC1 [Example 173, 8-(4-acetylpiperazin-1-yl)-N-(1-cyanocyclopropyl)-3-(5-(trifluoromethyl)-1,3,4-thiadiazol-2-yl)imidazo[1,5-a]pyridine-6-sulfonamide]	400 nM	50.1 nM		
COC1(C(=O)N2CCN(c3cc(S(=O)(=O)NC4(C)COC4)cn4c(-c5nnc(C(F)(F)F)s5)ncc34)CC2)CC1 [Example 177, 8-(4-(1-methoxycyclopropane-1-carbonyl)piperazin-1-yl)-N-(3-methyloxetan-3-yl)-3-(5-(trifluoromethyl)-1,3,4-thiadiazol-2-yl)imidazo[1,5-a]pyridine-6-sulfonamide]	15 nM	0.54 nM		
CC1(NS(=O)(=O)c2cc(N3CCN[C@@H](CO)C3)c3cnc(-c4nnc(C(F)F)s4)n3c2)COC1 [Example 178, (R)-3-(5-(difluoromethyl)-1,3,4-thiadiazol-2-yl)-8-(3-(hydroxymethyl)piperazin-1-yl)-N-(3-methyloxetan-3-yl)imidazo[1,5-a]pyridine-6-sulfonamide]	945 nM	1.18 nM		

Next, values leading:

IC50 ([1]; Homo sapiens, HCC1806, 168 h)	IC50 ([2]; PARG, TFMU-ADPr substrate)	IC50 [1]	IC50 [2, 3]	Compound
1680 nM	22.9 nM			CC(C)C(=O)N1CCN(c2cc(S(=O)(=O)NC3CC3)cn3c(-c4nnc(C(F)F)s4)nc(Cl)c23)C[C@H]1C [Example 131, (R)-1-chloro-N-cyclopropyl-3-(5-(difluoromethyl)-1,3,4-thiadiazol-2-yl)-8-(4-isobutyryl-3-methylpiperazin-1-yl)imidazo[1,5-a]pyridine-6-sulfonamide]
213 nM	12.6 nM			COCC1CN(c2cc(S(=O)(=O)NC3(C)COC3)cn3c(-c4nnc(C(F)(F)F)s4)nc(Cl)c23)CCN1 (stereo not shown) [Example 135, 1-chloro-8-(3-(methoxymethyl)piperazin-1-yl)-N-(3-methyloxetan-3-yl)-3-(5-(trifluoromethyl)-1,3,4-thiadiazol-2-yl)imidazo[1,5-a]pyridine-6-sulfonamide]
5000 to 30000 nM	34.1 nM	9940 nM	< 100 nM	N#CC1(NS(=O)(=O)c2cc(N3CCN(C4COC4)CC3)c3cnc(-c4nnc(C(F)F)s4)n3c2)CC1 [Example 147, N-(1-cyanocyclopropyl)-3-(5-(difluoromethyl)-1,3,4-thiadiazol-2-yl)-8-(4-(oxetan-3-yl)piperazin-1-yl)imidazo[1,5-a]pyridine-6-sulfonamide]
1000 nM	20 nM			CC(C)C(=O)N1CCN(c2cc(S(=O)(=O)NC3(C)CC3)cn3c(-c4nnc(C(F)F)s4)nc(C#N)c23)C[C@H]1C [Example 165, (R)-1-cyano-3-(5-(difluoromethyl)-1,3,4-thiadiazol-2-yl)-8-(4-isobutyryl-3-methylpiperazin-1-yl)-N-(1-methylcyclopropyl)imidazo[1,5-a]pyridine-6-sulfonamide]
882 nM	13.2 nM			CC(C)C(=O)N1CCN(c2cc(S(=O)(=O)NC3CC3)cn3c(-c4nnc(C(F)(F)F)s4)nc(C#N)c23)CC1 [Example 166, 1-cyano-N-cyclopropyl-8-(4-isobutyrylpiperazin-1-yl)-3-(5-(trifluoromethyl)-1,3,4-thiadiazol-2-yl)imidazo[1,5-a]pyridine-6-sulfonamide]
14 nM	0.15 nM			[2H]C([2H])([2H])OC1(C(=O)N2CCN(c3cc(S(=O)(=O)NC4(C)CC4)cn4c(-c5nnc(C(F)(F)F)s5)ncc34)CC2)CC1 [Example 168, 8-(4-(1-(methoxy-d3)cyclopropane-1-carbonyl)piperazin-1-yl)-N-(1-methylcyclopropyl)-3-(5-(trifluoromethyl)-1,3,4-thiadiazol-2-yl)imidazo[1,5-a]pyridine-6-sulfonamide]
27 nM	1.82 nM			Cc1nc(-c2nnc(C(F)F)s2)n2cc(S(=O)(=O)NC3(C)COC3)cc(N3CCC4(CC3)COC4)c12 [Example 169, 3-(5-(difluoromethyl)-1,3,4-thiadiazol-2-yl)-1-methyl-N-(3-methyloxetan-3-yl)-8-(2-oxa-7-azaspiro[3.5]nonan-7-yl)imidazo[1,5-a]pyridine-6-sulfonamide]
856 nM	5.01 nM			CC(C)C(=O)N1CCN(c2cc(S(=O)(=O)NC3(C)COC3)cn3c(-c4nnc(C(F)(F)F)s4)ncc23)C[C@H]1C [Example 174, (R)-8-(4-isobutyryl-3-methylpiperazin-1-yl)-N-(3-methyloxetan-3-yl)-3-(5-(trifluoromethyl)-1,3,4-thiadiazol-2-yl)imidazo[1,5-a]pyridine-6-sulfonamide]
1340 nM	4.37 nM			O=S(=O)(NC1(CF)COC1)c1cc(N2CCC3(CC2)COC3)c2cnc(-c3nnc(C(F)(F)F)s3)n2c1 [Example 176, N-(3-(fluoromethyl)oxetan-3-yl)-8-(2-oxa-7-azaspiro[3.5]nonan-7-yl)-3-(5-(trifluoromethyl)-1,3,4-thiadiazol-2-yl)imidazo[1,5-a]pyridine-6-sulfonamide]
